Where two headings read alike, the source gives them in different places. Values belong to the compound of their own block, whether it stands above or below them. Where a SMILES comes first, the peptide text is derived from it. Side-chain parts run from the residue outwards. [ ]: non-standard residue; d: D form. The star is where a group is joined. Nicotinoyl = O=C(c1cccnc1)*; Nle = CCCC[C@H](N)C(=O)O; Cbz = O=C(OCc1ccccc1)*
What was measured:
[1] = test system: scopolamine-induced amnesia; conditions: rat, in vivo
[2] = test system: scopolamine-induced amnesia
[3] = biological target: T1, AT4 receptor (Ovis aries, UniProt A0ACI6PQ17); experiment: Competition for [125I]LVV-haemorphin-7 binding to sheep cerebellar cortical membranes; conditions: read-out: IC50 for competing for 125I-LVV-haemorphin-7 binding
[4] = test system: AT4 receptor sites; experiment: Cross-displacement of [125I]LVV-haemorphin-7 and [125I]Ang IV binding on sheep hindbrain sections
Experimental: Sheep hindbrain sections were used to compare the distribution of ^125I-LVV-haemorphin-7 binding and AT4 receptor sites. Sections at 10 μm thickness were equilibrated to 22° C. (30 min), and then preincubated for 30 min in an isotonic buffer containing 50 mM Tris, 150 mM sodium chloride, 5 mM EDTA, 100 μM phenylmethylsulfonyl fluoride, 20 μM bestatin and 0.1% bovine serum albumin, pH 7.4, before a further 2 h incubation in the same buffer containing 2.84 μCi of [^125I]LVV-haemorphin-7 or [125I]Ang IV (approximately 140 pM). The binding of the radioligands was cross-displaced with either 1 μM unlabelled LVV-haemorphin-7 or Ang IV. After incubation, the sections were given three 2 min washes in buffer at 4° C., and exposed to X-ray film for 14 to 28 d.

[5] = biological target: T1, AT4 receptor; experiment: Competition for [125I]Ang IV binding to sheep cerebellar cortical membranes
[6] = test system: AT4 receptor; experiment: Competition for [125I]Ang IV binding on prefrontal cortical brain sections (in vitro receptor autoradiography); parameters: species or system Macaca fascicularis; conditions: for Competition for [125I]Ang IV binding: even at concentrations of 10 mM; for IC50: monkey prefrontal cortical sections, read-out: IC50 for competing for [125I]Ang IV binding
[7] = biological target: T2, embryonic chicken Ang IV binding site (AT4 receptor) (Gallus gallus, UniProt F1NNE7); experiment: Competition for [125I]Ang IV binding to E13 chicken chorioallantoic membranes; conditions: for Concentration at which only 50% of the [125I]Ang IV sites were competed for: E13 chicken CAM, only 50% of the sites
T2 sequence (F1NNE7 1-1024): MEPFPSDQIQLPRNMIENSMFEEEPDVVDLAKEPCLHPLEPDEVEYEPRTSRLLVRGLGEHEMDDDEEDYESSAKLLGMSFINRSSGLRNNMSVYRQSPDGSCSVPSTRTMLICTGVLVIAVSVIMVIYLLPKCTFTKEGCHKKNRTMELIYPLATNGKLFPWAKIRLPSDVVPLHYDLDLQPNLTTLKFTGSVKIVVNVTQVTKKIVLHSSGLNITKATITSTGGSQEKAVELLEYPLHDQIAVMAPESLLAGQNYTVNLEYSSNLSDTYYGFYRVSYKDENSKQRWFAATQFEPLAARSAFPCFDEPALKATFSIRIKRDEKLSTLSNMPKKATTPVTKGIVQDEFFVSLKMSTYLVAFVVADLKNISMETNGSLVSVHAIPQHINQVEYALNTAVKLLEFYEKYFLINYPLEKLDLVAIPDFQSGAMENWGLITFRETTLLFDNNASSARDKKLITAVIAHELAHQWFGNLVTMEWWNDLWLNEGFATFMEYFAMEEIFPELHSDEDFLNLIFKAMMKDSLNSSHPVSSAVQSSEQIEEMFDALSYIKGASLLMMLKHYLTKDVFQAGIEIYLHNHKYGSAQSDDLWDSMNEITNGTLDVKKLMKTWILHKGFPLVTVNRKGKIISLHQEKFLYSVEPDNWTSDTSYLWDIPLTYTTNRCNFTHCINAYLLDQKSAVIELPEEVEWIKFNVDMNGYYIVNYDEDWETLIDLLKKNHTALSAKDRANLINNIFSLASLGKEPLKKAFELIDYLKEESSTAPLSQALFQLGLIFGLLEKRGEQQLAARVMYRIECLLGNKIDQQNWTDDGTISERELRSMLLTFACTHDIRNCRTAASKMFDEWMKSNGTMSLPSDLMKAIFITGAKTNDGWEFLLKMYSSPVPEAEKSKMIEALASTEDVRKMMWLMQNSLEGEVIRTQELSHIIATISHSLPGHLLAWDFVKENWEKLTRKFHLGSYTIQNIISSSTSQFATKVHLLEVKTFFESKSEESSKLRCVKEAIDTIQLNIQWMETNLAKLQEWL

[8] = biological target: Ang IV binding site (AT4 receptor) (Homo sapiens, UniProt Q9UIQ6); conditions: literature; cited from earlier work
[9] = test system: embryonic chicken sympathetic neurons
[10] = test system: AT4 receptor; conditions: literature; mediated via the AT4 receptor; cited from earlier work
[11] = 10^−8 M Ang II, test substance 1 μM
[12] = 10^−8 M Ang IV, test substance 1 μM

Ang IV binding site (AT4 receptor), sequence (Q9UIQ6 whole entry): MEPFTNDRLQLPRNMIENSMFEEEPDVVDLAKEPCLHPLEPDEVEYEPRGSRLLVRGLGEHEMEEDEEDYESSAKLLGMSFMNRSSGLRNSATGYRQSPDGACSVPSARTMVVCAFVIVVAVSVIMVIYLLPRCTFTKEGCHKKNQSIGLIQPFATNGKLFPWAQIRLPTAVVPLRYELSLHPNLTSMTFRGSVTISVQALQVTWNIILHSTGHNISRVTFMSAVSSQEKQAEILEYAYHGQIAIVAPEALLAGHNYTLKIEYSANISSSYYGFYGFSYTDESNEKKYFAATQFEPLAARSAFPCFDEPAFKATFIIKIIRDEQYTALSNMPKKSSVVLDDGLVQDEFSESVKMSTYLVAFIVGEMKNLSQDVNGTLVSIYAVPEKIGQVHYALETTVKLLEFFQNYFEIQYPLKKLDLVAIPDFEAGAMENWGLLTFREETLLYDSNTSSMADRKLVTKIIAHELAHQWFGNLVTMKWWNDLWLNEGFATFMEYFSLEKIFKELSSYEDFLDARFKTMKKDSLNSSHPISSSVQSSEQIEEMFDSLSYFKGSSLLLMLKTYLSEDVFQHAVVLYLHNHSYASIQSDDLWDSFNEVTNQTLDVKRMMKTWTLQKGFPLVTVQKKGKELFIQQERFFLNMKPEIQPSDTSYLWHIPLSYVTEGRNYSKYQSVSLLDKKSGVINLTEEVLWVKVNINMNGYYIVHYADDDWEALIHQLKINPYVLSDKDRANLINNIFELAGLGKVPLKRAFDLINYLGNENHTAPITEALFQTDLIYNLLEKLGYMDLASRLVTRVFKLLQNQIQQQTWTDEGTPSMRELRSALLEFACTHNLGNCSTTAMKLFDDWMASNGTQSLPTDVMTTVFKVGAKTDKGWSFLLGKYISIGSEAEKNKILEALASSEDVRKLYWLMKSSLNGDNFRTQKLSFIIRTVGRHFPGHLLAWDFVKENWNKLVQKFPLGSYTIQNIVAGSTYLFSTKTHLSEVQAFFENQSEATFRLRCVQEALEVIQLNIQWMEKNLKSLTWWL
T1 sequence (A0ACI6PQ17 1-1050): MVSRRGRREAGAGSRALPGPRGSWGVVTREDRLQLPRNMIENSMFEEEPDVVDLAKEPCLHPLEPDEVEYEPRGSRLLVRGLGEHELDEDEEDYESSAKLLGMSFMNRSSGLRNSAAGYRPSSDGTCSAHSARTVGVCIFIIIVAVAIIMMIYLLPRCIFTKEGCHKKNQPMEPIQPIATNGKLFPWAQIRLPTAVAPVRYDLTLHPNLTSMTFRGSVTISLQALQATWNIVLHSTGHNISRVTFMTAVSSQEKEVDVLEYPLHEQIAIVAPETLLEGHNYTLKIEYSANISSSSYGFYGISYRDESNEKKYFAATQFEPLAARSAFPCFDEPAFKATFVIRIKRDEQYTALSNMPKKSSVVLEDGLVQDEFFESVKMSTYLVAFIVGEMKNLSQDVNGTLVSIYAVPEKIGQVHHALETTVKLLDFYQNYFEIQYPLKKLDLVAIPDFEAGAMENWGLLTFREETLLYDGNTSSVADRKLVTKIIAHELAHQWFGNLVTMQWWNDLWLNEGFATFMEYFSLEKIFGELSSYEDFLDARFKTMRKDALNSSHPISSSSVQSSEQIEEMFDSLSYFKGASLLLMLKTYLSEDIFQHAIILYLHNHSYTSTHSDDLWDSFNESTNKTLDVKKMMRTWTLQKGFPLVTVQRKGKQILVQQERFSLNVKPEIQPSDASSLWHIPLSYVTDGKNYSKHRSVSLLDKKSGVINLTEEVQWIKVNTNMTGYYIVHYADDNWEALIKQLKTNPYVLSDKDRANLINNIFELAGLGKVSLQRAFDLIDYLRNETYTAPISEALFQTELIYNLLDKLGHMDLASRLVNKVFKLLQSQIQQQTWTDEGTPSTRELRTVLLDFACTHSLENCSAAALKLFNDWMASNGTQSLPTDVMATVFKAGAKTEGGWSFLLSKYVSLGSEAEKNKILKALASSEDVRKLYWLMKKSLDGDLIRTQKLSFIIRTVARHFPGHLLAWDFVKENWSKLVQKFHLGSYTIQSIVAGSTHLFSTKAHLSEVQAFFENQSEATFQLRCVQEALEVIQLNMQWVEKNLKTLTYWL

Compound: CN1[C@@H]2C[C@@H](OC(=O)[C@H](CO)c3ccccc3)C[C@H]1[C@@H]1O[C@@H]12 [scopolamine]
- Latency in finding the platform after amnesic agent [1]: significantly increased latencies
- Passive avoidance performance after amnesic agent ([2]; 70 nmol intracerebroventricularly followed by saline): learning and memory deficits

Compound: LVVYPWTQRF [LVV-haemorphin-7]
- Effect on scopolamine-induced latency in finding the platform [1]: totally reversed
- IC50 [3]: 5.6 nM
- Displacement of [125I]LVV-haemorphin-7 and [125I]Ang IV binding [4]: displaced
- IC50 ([5]; read-out: IC50 for competing for [125I]Ang IV binding): 2 nM
- Effect on scopolamine-induced amnesia (latency to enter dark compartment) ([2]; 70 nmol scopolamine followed by 1.0 nmol peptide, intracerebroventricularly): completely reversed
- Passive avoidance performance, substance alone ([2]; saline followed by 1.0 nmol, intracerebroventricularly): performed worse than the scopolamine-treated rats

Compound: Cc1cc(Cn2cnc3c2C[C@@H](C(=O)O)N(C(=O)C(c2ccccc2)c2ccccc2)C3)ccc1N(C)C [PD 123319]
- Competition for [125I]Ang IV binding [6]: inactive
- IC50 ([3]; sheep cerebellar cortical membranes): 46000 nM
- Inhibition of [125I]Ang IV binding ([7]; at concentrations up to 10 μM): inactive
- Competition for [125I]Ang IV binding ([5]; at 10 μM): inactive
- Affinity of the Ang IV site for the ligand [8]: low to very low affinity
- Effect on the inhibition of neurite outgrowth by Ang II [9, 11]: ineffective
- Effect on the inhibition of neurite outgrowth by Ang IV [9, 12]: no effect

Compound: CC[C@H](C)[C@H](NC(=O)[C@@H]1CCCN1C(=O)[C@H](Cc1c[nH]cn1)NC(=O)[C@H](CCCCNC(=O)[C@H](CCCNC(=N)N)NC(=O)OCc1ccccc1)NC(=O)[C@H](Cc1ccc(O)cc1)NC(=O)c1cccnc1)C(=O)O [CGP 42112] (Nicotinoyl-YK([Arg-Cbz])HPI-OH; N-terminus and C-terminus assumed)
- Concentration at which only 50% of the [125I]Ang IV sites were competed for [7]: 0.5 µM
- Effect on the inhibition of neurite outgrowth by Ang II [9]: ineffective
- Effect on the inhibition of neurite outgrowth by Ang IV [9]: no effect

- Competition for [125I]Ang IV binding [6]: inactive
Compound: CCCCc1nc(Cl)c(CO)n1Cc1ccc(-c2ccccc2-c2nn[nH]n2)cc1 [losartan]
- Affinity of the Ang IV site for the ligand [8]: low to very low affinity
- Effect on the inhibition of neurite outgrowth by Ang II [9, 11]: ineffective
- Effect on the inhibition of neurite outgrowth by Ang IV [9, 12]: no effect

Compound: CC[C@H](C)[C@H](NC(=O)[C@H](Cc1ccc(O)cc1)NC(=O)[C@@H](NC(=O)[C@@H](N)CCCNC(=N)N)C(C)C)C(=O)N[C@@H](Cc1c[nH]cn1)C(=O)N1CCC[C@H]1C(=O)N[C@@H](Cc1ccccc1)C(=O)O [Ang III]
- IC50 [6]: 80 nM

Compound: CCCC[C@H](N)C(=O)N[C@@H](Cc1ccc(O)cc1)C(=O)N[C@H](C(N)=O)[C@@H](C)CC [Nle^1-Y-I-amide] (H-[Nle]-Tyr-Ile-NH2; N-terminus assumed)
- Effect on the inhibition of neurite outgrowth by Ang IV [9]: totally reversed

Compound: CC[C@H](C)[C@H](NC(=O)[C@H](Cc1ccc(O)cc1)NC(=O)[C@@H](NC(=O)[C@H](CCCNC(=N)N)NC(=O)[C@@H](N)CC(=O)O)C(C)C)C(=O)N[C@@H](Cc1c[nH]cn1)C(=O)N1CCC[C@H]1C(=O)N[C@@H](Cc1ccccc1)C(=O)O [Ang II]
- IC50 [6]: 730 nM
- Inhibition of neurite outgrowth [9]: 25%

Compound: CC[C@H](C)[C@H](NC(=O)[C@@H]1CCCN1C(=O)[C@H](Cc1c[nH]cn1)NC(=O)[C@@H](NC(=O)[C@H](Cc1ccc(O)cc1)NC(=O)[C@@H](NC(=O)[C@H](CCCNC(=N)N)NC(=O)CNC)C(C)C)[C@@H](C)CC)C(=O)O [[Sar^1Ile^8]Ang II]
- Concentration at which only 50% of the [125I]Ang IV sites were competed for [7]: 10 µM
- Affinity of the Ang IV site for the ligand [8]: low to very low affinity
- Effect on the inhibition of neurite outgrowth by Ang II [9]: ineffective
- Effect on the inhibition of neurite outgrowth by Ang IV [9]: no effect

Compound: CC[C@H](C)[C@H](NC(=O)[C@H](Cc1ccc(O)cc1)NC(=O)[C@@H](N)C(C)C)C(=O)N[C@@H](Cc1cnc[nH]1)C(=O)N1CCC[C@H]1C(=O)N[C@@H](Cc1ccccc1)C(=O)O [Ang IV, NH2-Val Tyr Ile His Pro Phe-COOH]
- Displacement of [125I]LVV-haemorphin-7 and [125I]Ang IV binding ([4]; 1 μM unlabelled ligand, sheep hindbrain sections): displaced
- Effect on memory in a passive avoidance task [10]: improve memory retention and retrieval
- Concentration of maximal effect on neurite outgrowth [9]: 10^−9 M
- Threshold concentration for inhibition of neurite outgrowth [9]: 10^−11 M
- IC50 ([9]; read-out: Half maximal inhibition of neurite outgrowth): 0.1 nM

Reference: US7026280B2, “LV V-Haemorphin-7 neuroactive peptide and methods of use” (Howard Florey Institute of Experimental Physiology, priority 1996, dated 2006)
